{
  "source": "patent US20120128770A1",
  "about": "“TREATMENT OF INSULIN RESISTANCE AND OBESITY BY STIMULATING GLP-1 RELEASE” (Kobenhavns Universitet, priority 2009, published 2012)",
  "key": {"human GPR119 receptor [1]": {"target": "T1, human GPR119 receptor (Homo sapiens, UniProt Q8TDV5)", "T1 sequence (Q8TDV5 1-335)": "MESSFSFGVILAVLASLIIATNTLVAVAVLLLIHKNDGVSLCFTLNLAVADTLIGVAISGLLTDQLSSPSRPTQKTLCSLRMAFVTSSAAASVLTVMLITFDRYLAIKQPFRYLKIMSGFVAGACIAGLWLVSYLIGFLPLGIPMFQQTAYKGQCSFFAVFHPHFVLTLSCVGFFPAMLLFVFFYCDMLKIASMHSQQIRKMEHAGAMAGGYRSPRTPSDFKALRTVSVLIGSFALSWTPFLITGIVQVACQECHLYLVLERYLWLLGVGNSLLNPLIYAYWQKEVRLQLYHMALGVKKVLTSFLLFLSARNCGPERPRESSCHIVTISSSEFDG", "experiment": "Ligand-induced GPR119 activation, cAMP accumulation (3H-adenine) in transiently transfected COS-7 cells", "type": "cell-based", "parameters": "expressed in transfected cells; host or cells: COS-7", "experimental": "Three different ligands were tested: (C) oleoylethanolamide (OEA), (A) 2-oleoylglycerol (2OG), and (D) oleic acid, by measurement of cAMP accumulation. Briefly, COS-7 cells were transiently transfected with the human GPR119 receptor (squares) or empty vector (negative control, triangle). The cells were seeded in plates one day after transfection, incubated for 24 hours with 2 μCi/ml of ^3H-adenine. At the day of the cAMP measurement, the cells incubated with the ligands for 25 minutes, lysed, and the cAMP purified using Dowex and alumina columns. The data represent sum-curves of three independent experiments (n=3), performed in duplicates. All dose-response curves were normalized to the efficacy of OEA in each experiment, and the data are shown as ligand-induced activation above basal receptor activity.\nBriefly, COS-7 cells were transiently transfected with human GPR119 receptor (squares) or empty vector (negative control, triangle). The cells were seeded in plates one day after transfection, incubated for 24 hours with 2 μCi/ml of ^3H-adenine. At the day of the cAMP measurement, the cells were incubated with the ligand for 25 minutes, lysed, and the cAMP purified using Dowex and alumina columns. The data represent sum-curves of the 7 independent experiments, performed in duplicates.\nGPR119 receptor signalling experiments were carried out using COS-7 cells transiently transfected with the human GPR119 receptor. The COS-7 cells were grown at 10% CO2 and 37° C. in Dulbecco's modified Eagle's medium with glutamax (Gibco, Cat. No 21885-025) adjusted with 10% fetal bovine serum (FBS), 180 u/ml penicillin and 45 ug/mL streptomycin (PenStrep). Transfection of the COS-7 cells was performed by the calcium phosphate precipitation method. The cells were seeded in 24 well plates (1.5×10^5 cells/well) one day after transfection, and were subsequently incubated for 24 hours with 2 μCi/ml of 3H-adenine in 0.5 ml growth medium per well. At the day of the cAMP measurement, the cells were washed twice in HBS buffer (25 mM Hepes, pH 7.2, supplemented with 0.75 mM NaH2PO4, 140 mM NaCl and 0.05% (w/v) bovine serum albumin), and 0.5 ml HBS buffer supplemented with 1 mM of the phosphodiesterase inhibitor IBMX (3-isobutyl-1-methylxanthine, Sigma chemicals Co., St. Louis, Mo., USA) was added together with increasing concentrations of the different compounds (2OG, 1OG, OEA, oleic acid or 2-PG). After 25 min incubation at 37° C., the cells were placed on ice, the medium was removed, and the cells were lysed in 1 ml of 5% (w/v) trichloroacetic acid, supplemented with 0.1 mM cAMP and 0.1 mM ATP for 30 min. The lysate mixtures were loaded onto Dowex columns (Bio-Rad, Hercules, Calif., USA), which were washed with 2 ml of water and placed onto the top of alumina columns (Sigma) and washed again with 10 ml of water. The alumina columns were eluted with 6 ml of 0.1 M imidazole into 15 ml scintillation fluid (Highsafe III). Columns were re-used up to 15 times. Dowex columns were regenerated by adding 10 ml of 2 N HCl followed by 10 ml of water; the alumina columns were regenerated by adding 2 ml of 1 M imidazole, 10 ml of 0.1 M imidazole, and finally 5 ml of water. Determinations were made in duplicate."}, "tGLP-1 release": {"tested_on": "tGLP-1 release", "experiment": "Clinical experiment: duodenal bolus in healthy male volunteers, plasma tGLP-1 release", "type": "in vivo, human", "conditions": "for plasma tGLP-1 levels during the first 25 minutes: duodenal bolus, compared to vehicle", "experimental": "FIG. 4. Stimulation of tGLP-1 release by 2OG in the intestinal lumen. Eight healthy male volunteers were given enteral feeding by duodenal tube. Each volunteer was given three different liquid meals (two grams of 2OG(▴), 1.54 grams of oleic (∘) acid or vehicle (⋄)) on three different days. The vehicle consisted of 50 ml glycerol plus 5 ml ethanol. Data are mean values±SEM and were analysed by repeated measurements ANOVA.\n8 healthy male volunteers (20-30 years, BMI 20-25) that had fasted 10 hours, were given enteral feeding by duodenal tube. The liquid meals were prepared 5 min before use. Each volunteer was given three different liquid meals (clear solution, bolus 55 ml) on three different days (A-C).\nDay A: 2OG (2 g) in 50 ml glycerol+5 ml ethanol Day B: oleic acid (1.54 g) in 50 ml glycerol+5 ml ethanol Day C: 50 ml glycerol+5 ml ethanol Blood Samples were collected at the following points (min): −15, −10, 0, 10, 20, 30, 40, 50, 60, 75, 90, 120, 150, 180, 240.\nIn serum was measured: insulin and C-peptide\nIn plasma was measured: glucose, tGLP-1, Cholecystokinin (CCK).\nThe methods for these assays have been described previously (ref 18)."}, "human GPR119 receptor [2]": {"target": "T1, human GPR119 receptor", "experiment": "Ligand-induced GPR119 activation, cAMP formation (HTRF) in CHO-K1 cells", "type": "cell-based", "parameters": "expressed in transfected cells", "conditions": "for cAMP formation / GPR119 activation in words: CHO-K1 cells transiently expressing GPR119, FIG. 1; for EC50: CHO-K1 cells, cAMP formation", "experimental": "FIG. 1. Ligand-induced GPR119 activation in CHO-K1 cells. Five different ligands were tested. Oleoylethanolamide, H-1: 2-oleoylglycerol, H-2: 1-oleoyleglycerol, H-4: oleic acid, and H-5: 2-palmitoylglycerol. cAMP was measured by a HTRF kit from CisBio International. Three experiments (each in duplicate) were performed using oleoylethanolamide as positive control in each experiment. All dose-response curves were normalized to the efficacy of OEA in each experiment, and the data are shown as ligand-induced activation above basal receptor activity.\nGPR119 receptor signalling experiments were carried out using CHO-K1 cells transiently transfected with the human GPR119 receptor. CHO-K1 cells expressing GPR119 grown to mid-log phase prior to the test in culture media without antibiotics and supplemented with doxycycine (final concentration 200 ng/ml) were detached be gentle flushing with PBS-EDTA (5 mM EDTA), recovered by centrifugation and resuspended in Ham's F12 culture medium containing 10% FCS and no antibiotic. Cells were counted, centrifuged in a 50 ml Falcon tube and resuspended in KRH-IBMX (5 mM KCL, 1.25 mM MgSO4, 124 mM NaCl, 25 mM HEPES, 13.3 mM glucose, 1.25 mM KH2PO4, 1.45 mM CaCl2, 0.6 mg/ml BSA and […] Phenol red, pH 7.4) at a concentration of 6.25×10^5 cells/ml. Cells were then filled in 96 well plates (total vol 24 μl/well) and stimulated with agonists in serial dilution for 30 min. cAMP was then measured using a HTRF kit from CisBio International (cat no. 62AM2PEB). Determinations were made in duplicate."}, "[3]": {"conditions": "transiently transfected COS-7 cells, Table 2, read-out: EC50 for activation of GPR119"}, "[4]": {"conditions": "experiment 1, read-out: EC-values for activation of GPR119, CHO-exp-1"}, "[5]": {"conditions": "experiment 2, read-out: EC-values for activation of GPR119, CHO-exp-2"}, "[6]": {"conditions": "COS-7 cells, cAMP formation, n = 3, read-out: EC-values for activation of GPR119, COS-cells (n = 3)"}, "[7]": {"conditions": "experiment 3, read-out: EC-values for activation of GPR119, CHO-exp-3"}},
  "data": [
    {"compound": "CCCCCCCC/C=C\\CCCCCCCCOC(CO)CO", "note": "[2OG-ether]", "values": [
      {"measurement": "EC50", "setting": "human GPR119 receptor [1]; [3]", "value": 7.9, "unit": "µM"}
    ]},
    {"compound": "CCCCCCCC/C=C\\CCCCCCCC(=O)OC(CO)CO", "note": "[2-Oleoylglycerol, 2-oleoylglycerol]", "values": [
      {"measurement": "plasma cholecystokinin levels", "setting": "tGLP-1 release; comparison between groups, data not shown", "value": "no difference"},
      {"measurement": "plasma tGLP-1 levels during the first 25 minutes", "setting": "tGLP-1 release; fasted volunteers", "value": "significant increased levels of tGLP-1"},
      {"measurement": "incremental area under the curve (iAUC) of tGLP-1 for the first 25 min", "setting": "tGLP-1 release; healthy male volunteers, duodenal tube, 2 g 2OG or 1.54 g oleic acid in 50 ml glycerol + 5 ml ethanol, mean±SEM", "value": "0.07±0.02", "unit": "nM×25 min"},
      {"measurement": "plasma levels of glucose", "setting": "tGLP-1 release; increase after 25 min in all three groups, comparison between groups, data not shown", "value": "no difference between groups"},
      {"measurement": "insulin or c-peptide levels", "setting": "tGLP-1 release; serum, fasted volunteers, data not shown", "value": "no effect"},
      {"measurement": "cAMP formation / GPR119 activation in words", "setting": "human GPR119 receptor [2]", "value": "increase cAMP formation"},
      {"measurement": "EC50", "setting": "human GPR119 receptor [2]; [4]", "value": 1.55, "unit": "µM"},
      {"measurement": "EC50", "setting": "human GPR119 receptor [2]; [5]", "value": 1.12, "unit": "µM"},
      {"measurement": "EC50", "setting": "human GPR119 receptor [1]; [6]", "value": 2.8, "unit": "µM"},
      {"measurement": "GPR119 agonism (efficacy normalized to OEA)", "setting": "human GPR119 receptor [1]; cAMP formation, COS-7 cells (also CHO-K1)", "value": "full agonist"},
      {"measurement": "EC50", "setting": "human GPR119 receptor [1]; [3]", "value": 4.2, "unit": "µM"}
    ]},
    {"compound": "CCCCCCCC/C=C\\CCCCCCCC(=O)NCCO", "note": "[Oleoylethanolamide, oleoylethanolamide, reference compound]", "values": [
      {"measurement": "EC50", "setting": "human GPR119 receptor [2]; [4]", "value": 1.43, "unit": "µM"},
      {"measurement": "EC50", "setting": "human GPR119 receptor [2]; [5]", "value": 4.65, "unit": "µM"},
      {"measurement": "EC50", "setting": "human GPR119 receptor [2]; [7]", "value": 1.67, "unit": "µM"},
      {"measurement": "EC50", "setting": "human GPR119 receptor [1]; [6]", "value": 1.4, "unit": "µM"}
    ]},
    {"compound": "CCCCCCCC/C=C\\CCCCCCCC(=O)O", "note": "[oleic acid, reference compound]", "values": [
      {"measurement": "plasma tGLP-1 levels during the first 25 minutes", "setting": "tGLP-1 release; fasted volunteers", "value": "did not increase plasma levels of GLP-1"},
      {"measurement": "EC50", "setting": "human GPR119 receptor [2]; [7]", "value": "> 30", "unit": "µM"},
      {"measurement": "EC50", "setting": "human GPR119 receptor [1]; [6]", "value": 32.6, "unit": "µM"},
      {"measurement": "EC50", "setting": "human GPR119 receptor [1]; [3]", "value": "> 30", "unit": "µM"}
    ]},
    {"compound": "CCCCCCCCCCCCCCCC(=O)OC(CO)CO", "note": "[2-palmitolyglycerol (2PG), 2-palmitoylglycerol]", "values": [
      {"measurement": "cAMP formation / GPR119 activation in words", "setting": "human GPR119 receptor [2]", "value": "activator of GPR119"},
      {"measurement": "EC50", "setting": "human GPR119 receptor [1]; [3]", "value": "> 30", "unit": "µM"}
    ]}
  ]
}
